Consider 20 molecules from ChEMBL document CHEMBL4219155, “Structure-based drug design of 1,3,6-trisubstituted 1,4-diazepan-7-ones as selective human kallikrein 7 inhibitors” (Bioorg Med Chem Lett, 2018).

For orientation: IC50 means the concentration that inhibits the measured activity by half.

Test [1] can be described thus: Inhibition of human chymotrypsin using Suc-Ala-Ala-Pro-Phe-MCA as substrate preincubated for 10 mins followed by substrate addition measured after 30 mins by fluorescence assay.
Test [2] deals with Kallikrein-7 (Homo sapiens, UniProt P49862). The test can be described thus: Inhibition of recombinant human KLK7 using MOCAc-Arg-Pro-Lys-Pro-Val-Glu-Nva-Trp-Arg-Lys(Dnp)-NH2 as substrate preincubated for 10 mins followed by substrate addition measured after 30 mins by fluorescence assay.
Chain of Kallikrein-7 (P49862 whole entry): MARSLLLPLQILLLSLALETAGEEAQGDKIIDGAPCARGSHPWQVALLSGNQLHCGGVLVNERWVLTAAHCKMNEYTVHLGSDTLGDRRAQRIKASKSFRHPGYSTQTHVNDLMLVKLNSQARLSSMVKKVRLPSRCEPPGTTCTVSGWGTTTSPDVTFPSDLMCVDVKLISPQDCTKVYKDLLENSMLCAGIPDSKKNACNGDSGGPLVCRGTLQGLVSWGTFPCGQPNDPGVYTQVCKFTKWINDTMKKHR
In test [3] the target is T1, Kallikrein-5 (Homo sapiens, UniProt Q9Y337).
T1 sequence (Q9Y337 whole entry): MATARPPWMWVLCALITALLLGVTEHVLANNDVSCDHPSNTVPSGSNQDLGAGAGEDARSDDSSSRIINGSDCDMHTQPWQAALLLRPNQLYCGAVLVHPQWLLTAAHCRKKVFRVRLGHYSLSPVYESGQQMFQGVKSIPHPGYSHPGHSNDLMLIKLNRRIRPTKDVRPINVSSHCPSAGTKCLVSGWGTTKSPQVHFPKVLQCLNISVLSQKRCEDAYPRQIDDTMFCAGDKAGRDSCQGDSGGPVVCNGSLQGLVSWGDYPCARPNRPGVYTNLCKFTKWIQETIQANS
Description: Inhibition of recombinant human KLK5 using Boc-Val-Pro-Arg-MCA as substrate preincubated for 10 mins followed by substrate addition measured after 30 mins by fluorescence assay.

The target of test [4] is Trypsin (Homo sapiens, UniProt P07477+P07478+P35030). Description: Inhibition of human trypsin using Boc-Gln-Ala-Arg-MCA as substrate preincubated for 10 mins followed by substrate addition measured after 30 mins by fluorescence assay. The test is classed as protein assay.

As to `COc1ccc(Cl)cc1C[C@@H]1CN/C(=N\N(C)C)CN([C@@H](C)C(=O)Nc2cccc(-c3cnn(C)c3)c2)C1=O`, the concentration for half-maximal inhibition (IC50) is 3.1 µM in test [1], 0.058 µM in test [2], greater than 30 µM in test [3] and greater than 30 µM in test [4].
Consider `COc1ccc(Cl)cc1C[C@@H]1CN/C(=N\N(C)C)CN(CC(=O)Nc2cccc(-c3cnn(C)c3)c2)C1=O`, for which the IC50 in test [1] is greater than 30 µM; in test [2], 0.52 µM; in test [3], greater than 30 µM; in test [4], greater than 30 µM.
In the case of `COc1ccc(Cl)cc1C[C@@H]1CN/C(=N\N(C)C)CN(CC(=O)Nc2cccc(C(F)(F)F)c2)C1=O`, the IC50 in test [2] came to 4.3 µM.
The same measure, in the same setting: with `COc1ccc(Cl)cc1C[C@@H]1CN/C(=N\N(C)C)CN(CC(=O)Nc2cccc(S(=O)(=O)N(C)C)c2)C1=O` the figure was 0.99 µM; with `COc1ccc(Cl)cc1C[C@@H]1CN/C(=N\N(C)C)CN(CC(=O)Nc2cccc(C(=O)N(C)C)c2)C1=O`, 2.5 µM; with `COc1cccc(NC(=O)CN2C/C(=N/N(C)C)NC[C@@H](Cc3cc(Cl)ccc3OC)C2=O)c1`, 2.7 µM.
As to `COc1ccc(Cl)cc1C[C@@H]1CN/C(=N\N(C)C)CN(CC(=O)Nc2cccc(S(=O)(=O)C(F)(F)F)c2)C1=O`, in test [2], the IC50 was 3.9 µM.
The same measure, in the same setting: with `CNC(=O)c1cccc(NC(=O)CN2C/C(=N/N(C)C)NC[C@@H](Cc3cc(Cl)ccc3OC)C2=O)c1` the figure was 0.94 µM; with `COc1ccc(Cl)cc1C[C@@H]1CN/C(=N\N(C)C)CN([C@H](C)C(=O)Nc2cccc(-c3cnn(C)c3)c2)C1=O`, 0.92 µM; with `COc1ccc(Cl)cc1C[C@@H]1CN/C(=N\N(C)C)CN(CC(=O)Nc2cccc(C#N)c2)C1=O`, 5.3 µM.
For `CCC[C@H](C(=O)Nc1cccc(-c2cnn(C)c2)c1)N1C/C(=N/N(C)C)NC[C@@H](Cc2cc(Cl)ccc2OC)C1=O`, the half-inhibitory concentration (IC50) in test [2] came out at 7 µM.
As for `COc1ccc(Cl)cc1C[C@@H]1CN/C(=N\N(C)C)CN(CC(=O)Nc2cccc(-c3cccs3)c2)C1=O`, the half-maximal inhibitory concentration (IC50) in test [2] was determined as 0.87 µM.
Turning to `COc1ccc(Cl)cc1C[C@@H]1CN/C(=N\N(C)C)CN(CC(=O)Nc2cccc(-c3ccco3)c2)C1=O`, the IC50 in test [2] turned out to be 0.59 µM.
As for `COc1ccc(Cl)cc1C[C@@H]1CN/C(=N\N(C)C)CN(CC(=O)Nc2cccc(-c3ccsc3)c2)C1=O`, the IC50 in test [2] turned out to be 1.5 µM.
Take `CC[C@H](C(=O)Nc1cccc(-c2cnn(C)c2)c1)N1C/C(=N/N(C)C)NC[C@@H](Cc2cc(Cl)ccc2OC)C1=O`: the IC50 in test [2] came to 2.8 µM.
With `CCCC[C@H](C(=O)Nc1cccc(-c2cnn(C)c2)c1)N1C/C(=N/N(C)C)NC[C@@H](Cc2cc(Cl)ccc2OC)C1=O`, in test [2], the IC50 amounted to 4.1 µM.
`CC[C@@H](C(=O)Nc1cccc(-c2cnn(C)c2)c1)N1C/C(=N/N(C)C)NC[C@@H](Cc2cc(Cl)ccc2OC)C1=O`: in test [2], the IC50 was determined as 0.45 µM.
Take `COc1ccc(Cl)cc1C[C@@H]1CN/C(=N\N(C)C)CN(CC(=O)Nc2cccc(-c3ccoc3)c2)C1=O`: the 50% inhibitory concentration (IC50) in test [2] came out at 0.67 µM.
Consider `CCCC[C@@H](C(=O)Nc1cccc(-c2cnn(C)c2)c1)N1C/C(=N/N(C)C)NC[C@@H](Cc2cc(Cl)ccc2OC)C1=O`, for which the concentration for half-maximal inhibition (IC50) in test [2] turned out to be 0.11 µM.
Turning to `CCC[C@@H](C(=O)Nc1cccc(-c2cnn(C)c2)c1)N1C/C(=N/N(C)C)NC[C@@H](Cc2cc(Cl)ccc2OC)C1=O`, the IC50 in test [1] was 1.3 µM; in test [2], 0.048 µM; in test [3], greater than 30 µM; in test [4], greater than 30 µM.
